# Laboratory results published in patent publication US20060257481A1, “Sustained release formulation and dosing schedule of leukotriene synthesis inhibitor for human therapy” (deCODE Genetics ehf., priority 2005, published 2006).
# Values joined by “and” are separate entries in the source; they are usually repeats but may differ in a detail not shown here. Equal values may be shown once.
# How the values were obtained:
# [1] = Clinical studies, safety and tolerability in CAD patients; assay type: in vivo, human
# Description: Previous clinical studies administered the dosages of DG-031 either in a single dose (QD) or twice a day (BID)
# A total daily dose of 750 mg, dosed at 250 mg TID, provides a preferable PK/PD relationship (inhibition of LTB4) and efficacy in terms of lowering other biomarkers of MI risk (i.e. MPO and CRP).
# [2] = system: MPO release by neutrophils and other cells in human whole blood; assay: In vitro MPO release in human whole blood after ionomycin stimulation; assay type: cell-based
# Description: (§1) Neutrophils and other cells in human whole blood respond in vitro to activation by a calcium ionophore (e.g., ionomycin), with an increase in LTB4 production and with coupled release of MPO stimulated in part by LTB4 production in the assay. The effect of DG-031 on the capacity for production of LTB4 in vitro after ionomycin stimulation was evaluated at concentrations ranging from 0.1 μM up to 240 μM.
# [3] = Pharmacokinetics of DG-031 dosing schedules, plasma concentration (studies 201 and 203); settings: for Peak concentration with trough concentration of 3 μg/mL maintained: steady-state, both half-lives
# Description: Measurements of plasma DG-031 can be carried out by methods that are standard in the art. […] The DG-031 is then measured by liquid chromatography and/or mass spectrometry and the measured concentration is compared to a standard curve.
# After completion of the double-blind study reported herein an open-label randomized study was conducted in an independent cohort but with same eligibility criteria and measuring several of the same biomarkers. […] Each patient was on drug for 8 days; there was no placebo group. The primary objective of this study was to determine pharmacokinetic parameters of DG-031 in three different doses, as well as to assess the pharmacokinetic/pharmacodynamic relationship between DG-031, LTB4 and MPO.
# The additional phase II study was conducted to compare a 750 mg total daily dose administered in a BID or TID dosing regimen.
# [4] = system: LTB4 produced by ionomycin-activated neutrophils ex vivo; assay: Study DG-031-201: LTB4 in whole blood ex vivo after ionomycin activation, mass spectrometry; parameters: species or system human
# Description: (§2) Patients who met the study eligebility criteria were enrolled and randomized into 3 different dose-level groups: (1) 64 patients on 250 mg/day therapy with DG-031 (250 mg q.d.), vs placebo; (2) 64 patients on 500 mg/day therapy with DG-031 (250 mg b.i.d.) vs placebo; and (3) 63 patients on 750 mg/day therapy with DG-031 (250 mg t.i.d.) vs placebo. […] All patients received 3 tablets per day. Treatment periods, 4 weeks in duration each, were separated by a 2-week washout period. The placebo tablets were identical in shape, color, form and taste to the active tablets except that they contained no active drug ingredients. Treatment with DG-031 or placebo was in addition to the subject's standard care, including all medications and treatment plan as prescribed by the subject's cardiologist prior to enrolment. A total of 191 subjects were enrolled, with 172 completing all 8 visits or 8 patients short of the target of 180 patients.
# The primary objective was to determine whether the FLAP inhibitor has a statistically significant effect, compared to placebo, on one or more biomarkers of MI risk, including: (1) ionomycin-induced LTB4 and MPO release by neutrophils ex vivo; (2) MPO, CRP, N-tyrosine, Lp-PLA2 or amyloid A in serum, or (3) LTE4 in urine. The secondary objective was to determine whether the effect of DG-031 was dose-dependent. The tertiary objective was to assess other biomarkers (See Results). Evaluation of safety and tolerability of the drug was also a primary endpoint.
# All data were analyzed according to a pre-established statistical analysis plan (SAP) and by intention-to-treat (ITT). Each arm of the study, as well as pooled sets (combining dose levels), was considered for the primary analysis. Each such set is an AB/BA cross-over design and in the primary analysis of efficacy, the levels of biomarkers of MI risk at the end of the treatment periods (visits 4 and 7) were used as primary response variables. The difference between DG-031 and placebo treatment was the primary outcome, assessed separately for each of the biomarkers. Treatment effect was tested using a two-sample t-test on the period differences for suitably transformed response variables, under an assumption of normality of the transformed data. We report treatment effect as one half of the observed mean differences in the two-sample t-test, with a 95% CI. No pre-tests for carry-over effect were performed as a part of the primary analysis. Tests for carry-over were done and are reported separately from results of primary analysis. All hypotheses were tested at a two-sided nominal significance level of 0.05 and p-values based on t-tests are reported. […]
# MPO [5] = assay: Study DG-031-203 open label dose ranging: plasma MPO; assay type: in vivo, human
# Description: The study also collected information on the dose-related effect of DG-031 on capacity for LTB4 production (ex vivo), plasma MPO, and serum-CRP. […] The pattern observed supported a concentration dependent pharmacologic effect of DG-031 on capacity for LTB4 production measured ex vivo. The effects on LTB4 production amounted to a 30% (p=0.016) and 25% (p=0.094) reduction with the 375 mg BID and 250 mg TID doses, respectively.
# [6] = system: LTB4 production in human whole blood; assay: In vitro LTB4 production in human whole blood after ionomycin stimulation; assay type: cell-based
# Description: as §1
# MPO [7] = assay: Study DG-031-201: MPO in plasma; assay type: in vivo, human; settings: difference visit 2 to visit 5; 500 and 750 mg/day vs placebo cohort
# Description: as §2, with “patients. […]” for “patients.”
# (§3) All data were analyzed according to a pre-established statistical analysis plan (SAP) and by intention-to-treat (ITT). […] The difference between DG-031 and placebo treatment was the primary outcome, assessed separately for each of the biomarkers. […]
# [8] = system: MPO release by ionomycin-activated neutrophils ex vivo; assay: Study DG-031-201: MPO in whole blood ex vivo after ionomycin activation; parameters: species or system human; settings: p=0.02
# Description: as §2, with “patients. […]” for “patients.”
# as §3
# [9] = difference visit 2 to visit 5, 500 and 750 mg/day vs placebo cohort
smiles,measurement,setting,value
"O=C(O)[C@@H](c1ccc(OCc2ccc3ccccc3n2)cc1)C1CCCC1 [DG-031, (R)-(+)-alpha-cyclopentyl-4-(2-quinolinylmethoxy)-Benzeneacetic acid]",Safety and tolerability,"[1]; 250 mg QD, 375 mg QD, 250 mg BID, 375 mg BID and 250 mg TID",safe and well tolerated
same,Safety and tolerability,"[1]; total daily doses 375 mg and 750 mg, less than 8 days",safe and well tolerated
same,Safety and tolerability,"[1]; total daily doses 250, 500 and 750 mg, 128 days",safe and well tolerated
same,Concentration at which MPO release is maximally inhibited in vitro,[2],~2 μg/ml and about 6 μM
same,Minimum plasma concentration maintained,[3]; 250 mg TID,~7 µM
same,Peak concentrations of DG-031,[3]; 250 mg TID,about 10 μg/ml and ~28 μM
same,Steady state Cmin plasma concentration,[3]; 250 mg TID,2000 to 3000 ng/mL
same,Calculated AUC24h,"[3]; 250 mg TID vs 375 mg BID, study 203",somewhat higher for 250 mg TID than for 375 mg BID
same,Cmin,"[3]; 375 mg BID vs 250 mg TID, study 203",slightly higher for the TID dosing regimen
same,Peak concentration with trough concentration of 3 μg/mL maintained,[3]; BID doses,14 µg/mL
same,Peak concentration required to keep steady-state concentration above 3 μg/ml,"[3]; BID dosing, calculated for a 2.5 hour half-life (FIG. 4)",~30 µg/mL
same,Peak concentration with trough concentration of 3 μg/mL maintained,[3]; TID doses,7 to 8 µg/mL
same,Peak plasma concentration required to keep steady-state concentration above 3 μg/ml,"[3]; TID dosing, calculated for a 2.5 hour half-life",~11 µg/mL
same,Drug required with TID dosing relative to BID schedule to maintain the minimum concentration,[3]; in vivo,about 70%
same,Share of total exposure of the fraction with the slower half-life,[3]; in vivo,about 25%
same,Maximum reduction in LTB4 production,"[4]; 750 mg/day, [10%,39%], p=0.003",26%
same,"Carry-over effect, LTB4 in whole blood, corr. for wbc, m.s.",[4]; [9],0.12
same,"Carry-over effect, LTB4 in whole blood, mass spec.",[4]; [9],0.19
same,Reduction of LTB4 produced by ionomycin-activated neutrophils ex vivo,"[4]; pooled set of 500 mg and 750 mg arms, [6%,27%], nominal p=0.004",17%
same,MPO in plasma,"MPO [5]; 250 mg TID, St. 203, 6 hours, P < 0.001",−37% (St. 203)
same,Drop of plasma MPO levels,"MPO [5]; 250 mg t.i.d., 6 hours after intake, [24%,47%], p<0.001",37%
same,MPO in plasma,"MPO [5]; 375 mg BID, Study 203, 6 hours, NS",−24%
same,Lowering of plasma MPO levels,"MPO [5]; 375 mg BID, p=0.067",24%
same,MPO in plasma,"MPO [5]; 375 mg QD, Study 203, 6 hours",No effect
same,Expected reduction of capacity for LTB4 production at peak concentration,"[6]; 250 mg TID peak, assuming ex vivo parallels in vitro response",about 65%
same,Expected reduction of capacity for LTB4 production at Cmin,"[6]; 250 mg TID, concentrations above 2-3 μg/ml, assuming ex vivo parallels in vitro response",≥ 30%
same,IC50,"[6]; human whole blood, ionomycin stimulation, read-out: in vitro IC50, capacity for LTB4 production",~3 µM and ~1.1 µg/mL
same,"Carry-over effect, MPO in plasma",MPO [7],−0.11
same,Maximum reduction in MPO production,"[8]; 750 mg/day, [2%,21%]",12%
same,Inhibition of MPO release,[8]; combined dose groups of 500 mg and 750 mg TDD,about 12%
